{"source": "patent US11535597B2", "about": "“Photoreactive ligands and uses thereof” (The Scripps Research Institute, priority 2017, dated 2022)", "target": "PTGR2 (Homo sapiens, UniProt Q8N8N7)", "sequence (Q8N8N7 whole entry)": "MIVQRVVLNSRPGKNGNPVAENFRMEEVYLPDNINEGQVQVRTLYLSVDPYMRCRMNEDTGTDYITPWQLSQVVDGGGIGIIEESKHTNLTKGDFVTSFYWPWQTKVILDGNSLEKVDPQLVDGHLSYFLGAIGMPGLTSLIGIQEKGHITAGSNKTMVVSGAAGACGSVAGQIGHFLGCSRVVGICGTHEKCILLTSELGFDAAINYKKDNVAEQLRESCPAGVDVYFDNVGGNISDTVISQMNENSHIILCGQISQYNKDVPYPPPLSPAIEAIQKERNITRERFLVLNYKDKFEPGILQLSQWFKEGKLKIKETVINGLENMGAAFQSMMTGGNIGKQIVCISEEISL", "test": "In vitro LCMS-based activity assay for PTGR2 (15-keto-PGE2 reductase activity)", "type": "biochemical", "experimental": "Aliquots (1 μL) of test compounds dissolved in DMSO were transferred to 1.5 mL eppendorf tubes followed by addition of recombinant human PTGR2 (44 μL, 200 nM final concentration) in freshly prepared reaction buffer (Tris Buffer, 1 mM EDTA, 50 μM TCEP, 300 μM NADPH). The resulting mixture was vortexed and then incubated at 37° C. for 20 min. Next, a 5 μL solution of 15-keto-PGE2 substrate (20 μM final concentration) in reaction buffer was added and the reaction was allowed to proceed for 30 min at 37° C. Reactions were quenched by the addition of 0.5% AcOH in ethyl acetate (800 μL), water (300 μL) and 100 μL of internal standard PGE2-d4 (30 pmol/sample) dissolved in 1:1 methanol/water. Phases were separated by centrifugation and the organic layer was collected and dried under a stream of N2, then stored at −80° C. until analysis. Directly prior to analysis, samples were reconstituted in 100 μL of MeCN:H2O (1:1, v/v) and analyzed by LC/MS/MS. All conditions were performed in triplicate and repeated at least three independent times.\nThe following MS parameters were used to measure the indicated metabolites by MRM (precursor ion, product ion, collision energy, polarity): PGE2-d4 (355, 275, 18), 13,14-dihydro-15-keto-PGE2 (351, 333, 18) and 15-keto-PGE2 (349, 161, 20). 15-keto-PGE2 and 13,14-dihydro-15-keto-PGE2 levels were quantified by determining peak areas in relation to internal standard PGE2-d4. Non-deuterated 15-keto-PGE2 and 13,14-dihydro-15-keto-PGE2 standards were used to confirm retention time and fragmentation.\nAll data fitting and statistical analysis performed using GraphPad Prism version 6.00 for Windows, GraphPad Software, La Jolla Calif. USA, www.graphpad.com. Statistical values including the exact n and statistical significance are also reported. Probe binding blockade and PTGR2 inhibition curves are plotted as mean±SD (n=3 or 4 per group) for a representative biological replicate using a variable slope (four parameter) non-linear fit. Gene expression data are presented as mean±SD (n=3 per group). HSC5 metabolite data are shown as mean±SD (n=3 per group). Statistical significance was defined as P<0.05 and determined by 2-tailed Student t tests, or two-way ANOVA with Bonferroni's post-tests."}
{"smiles": "COc1ccccc1N1CCN(C(=O)Cc2ccccc2)CC1", "note": "[Compound 22, 1-(4-(2-Methoxyphenyl)piperazin-1-yl)-2-phenylethan-1-one]", "values": [{"measurement": "effect on 15-keto-PGE2 reductase (catalytic) activity of recombinant PTGR2", "result": "inhibited"}, {"measurement": "increased potency relative to 20", "setting": "in assays measuring either competition of 8-labeling or 15-keto-PGE2 reductase activity of recombinant PTGR2", "result": "> 20", "unit": "fold"}, {"measurement": "IC50", "setting": "recombinant PTGR2, read-out: IC50 for inhibition of PTGR2-mediated reduction of 15-keto-PGE2 (15-keto-PGE2 reductase activity)", "result": 600, "unit": "nM"}]}
